Reference: ChEMBL document CHEMBL3600338, “NMR-based conformational analysis of 2',6-disubstituted uridines and antiviral evaluation of new phosphoramidate prodrugs” (Bioorg Med Chem, 2015)
Active and inactive are the calls of the source.

Columns and labels:
[1] = tested on: Hepatitis C virus; assay: Antiviral activity against Hepatitis C virus genotype 1b Con1 in HuH 5-2 replicon system assessed as reduction of viral replication; type: functional; conditions: Hepacivirus hominis
[2] = tested on: Poliovirus 1; assay: Antiviral activity against Poliovirus 1 Sabin infected in African green monkey BGM cells assessed as reduction of viral replication; type: functional, organism-based
[3] = tested on: Vero; assay: Antiviral activity against Coxsackievirus B3 Nancy infected in African green monkey Vero cells assessed as reduction of viral replication; type: functional, cell-based; conditions: Coxsackievirus B3 (strain Nancy)
[4] = tested on: rhinovirus B14; assay: Antiviral activity against Rhinovirus 14 infected in human HeLa cells assessed as reduction of viral replication; type: functional, organism-based
[5] = tested on: Chikungunya virus; assay: Antiviral activity against Chikungunya virus assessed as reduction of viral replication; type: functional
[6] = tested on: Enterovirus A71; assay: Antiviral activity against Enterovirus 71 infected in human HeLa cells assessed as reduction of viral replication; type: functional, organism-based
[7] = tested on: Vero; assay: Antiviral activity against Coxsackievirus B4 E2 infected in African green monkey Vero cells assessed as reduction of viral replication; type: functional, cell-based; conditions: Coxsackievirus B4 (strain E2)

Measured: Activity

CC(C)OC(=O)[C@H](C)NP(=O)(OC[C@H]1OC(n2c(C#N)cc(=O)[nH]c2=O)[C@H](O)[C@@H]1O)Oc1ccccc1 (some centres not stated)
inactive: [1] | [2] | [3] | [4] | [5] | [6] | [7]

Cc1cc(=O)[nH]c(=O)n1C1O[C@H](COP(=O)(N[C@@H](C)C(=O)OC(C)C)Oc2ccccc2)[C@@H](O)[C@H]1O (some centres not stated)
inactive: [1] | [2] | [3] | [4] | [5] | [6] | [7]

Cc1cc(=O)[nH]c(=O)n1C1O[C@H](COP(=O)(N[C@@H](C)C(=O)OC(C)C)Oc2ccccc2)[C@@H](O)[C@@]1(C)O (some centres not stated)
inactive: [1] | [2] | [3] | [4] | [5] | [6] | [7]

CC(C)OC(=O)[C@H](C)NP(=O)(OC[C@H]1OC(n2c(I)cc(=O)[nH]c2=O)[C@H](O)[C@@H]1O)Oc1ccccc1 (some centres not stated)
inactive: [1] | [2] | [3] | [4] | [5] | [6] | [7]

CC(C)OC(=O)[C@H](C)NP(=O)(OC[C@H]1OC(n2c(C#N)cc(=O)[nH]c2=O)[C@](C)(O)[C@@H]1O)Oc1ccccc1 (some centres not stated)
inactive: [1] | [2] | [3] | [4] | [5] | [6] | [7]

CC(C)OC(=O)[C@H](C)NP(=O)(OC[C@H]1OC(n2c(N=[N+]=[N-])cc(=O)[nH]c2=O)[C@H](O)[C@@H]1O)Oc1ccccc1 (some centres not stated)
inactive: [1] | [2] | [3] | [4] | [5] | [6] | [7]
